According to patent publication EP0432983A2 (priority 1989, dated 1991):
Values after ≈ are worked out from the molar mass of the structure shown.

Experiments:
[1] = system: HT-29 (human colon carcinoma); experiment: General anti-tumour assay, HT-29; format: cell-based
Method: (§1) With compounds AH-3, AH-4 and AH-5, four general anti-tumour assays and two cytotoxicity assays were performed. Current screening protocols were employed using test substance diluted as above and at varying concentrations. Tests were performed against the tumour cells P-388 (mouse DBA/2 lymphoid neoplasm), A-549 (human lung carcinoma), HT-29 (human colon carcinoma) and MCF-7 (human breast carcinoma) and for the cytotoxicity assays against CV-1 (monkey kidney fibroblast) and BHK (Hamster kidney fibroblast).
(§2) Scoring is performed as follows: (-) no activity - the number of cells is equal to the control of growth, 0-40% cell inhibition (+) low activity - numbers of cells are reduced by approx 50-60% (++) good activity - numbers of cells are reduced by approx 70-90% (+++) very good activity - there is 100% cell inhibition [(+) is the approximate IC₅₀]

[2] = system: P-388 (mouse DBA/2 lymphoid neoplasm); experiment: General anti-tumour assay, P-388; format: cell-based
Method: as §1, §2

[3] = system: A-549 (human lung carcinoma); experiment: General anti-tumour assay, A-549; format: cell-based
Method: as §1, §2

[4] = system: HSV-1 (herpes simplex virus, type 1); experiment: General anti-viral assay, HSV-1 in CV-1 cells (plaque reduction); format: cell-based; conditions: Human alphaherpesvirus 1; CV-1/ HSV-1; read-out: IC50 µg/ml approx
[5] = system: VSV (Vesicular Stomatitis Virus); experiment: microbe, parasite or virus in culture; format: cell-based; conditions: BHK, read-out: IC50 µg/ml approx
[6] = system: BHK (Hamster kidney fibroblast); experiment: Cytotoxicity assay, BHK; format: cell-based
Method: as §1, §2

[7] = system: MCF-7 (human breast carcinoma); experiment: General anti-tumour assay, MCF-7; format: cell-based
Method: as §1, §2

[8] = system: CV-1 (monkey kidney fibroblast); experiment: Cytotoxicity assay, CV-1; format: cell-based
Method: as §1, §2

CC(C)=CCCC(C)C1CCC(C)c2c1cc(C)c1c2OCO1 (stereo not drawn) [AH-4, Helioporin D]
activity (cell inhibition) ([1]; HT-29, TEST CONC (µg) 0.2): - ((-) no activity - the number of cells is equal to the control of growth, 0-40% cell inhibition) | activity (cell inhibition) ([1]; HT-29, TEST CONC (µg) 0.5): - ((-) no activity - the number of cells is equal to the control of growth, 0-40% cell inhibition) | activity (cell inhibition) ([1]; HT-29, TEST CONC (µg) 1): - ((-) no activity - the number of cells is equal to the control of growth, 0-40% cell inhibition) | activity (cell inhibition) ([1]; HT-29, TEST CONC (µg) 2): - ((-) no activity - the number of cells is equal to the control of growth, 0-40% cell inhibition) | activity (cell inhibition) ([1]; HT-29, TEST CONC (µg) 5): + ((+) low activity - numbers of cells are reduced by approx 50-60%) | activity (cell inhibition) ([1]; HT-29, TEST CONC (µg) 10): +++ ((+++) very good activity - there is 100% cell inhibition) | activity (cell inhibition) ([1]; HT-29, TEST CONC (µg) 20): +++ ((+++) very good activity - there is 100% cell inhibition) | IC50 ([1]; Homo sapiens, HT-29, read-out: IC50 µg/ml approx): ~5 µg/mL (≈ 15.9 µM) | IC50 ([2]; Mus musculus, P388, P-388, read-out: IC50 µg/ml approx): ~2 µg/mL (≈ 6.36 µM) | activity (cell inhibition) ([2]; P-388, TEST CONC (µg) 0.2): - ((-) no activity - the number of cells is equal to the control of growth, 0-40% cell inhibition) | activity (cell inhibition) ([2]; P-388, TEST CONC (µg) 0.5): - ((-) no activity - the number of cells is equal to the control of growth, 0-40% cell inhibition) | activity (cell inhibition) ([2]; P-388, TEST CONC (µg) 1): - ((-) no activity - the number of cells is equal to the control of growth, 0-40% cell inhibition) | activity (cell inhibition) ([2]; P-388, TEST CONC (µg) 2): + ((+) low activity - numbers of cells are reduced by approx 50-60%) | activity (cell inhibition) ([2]; P-388, TEST CONC (µg) 5): ++ ((++) good activity - numbers of cells are reduced by approx 70-90%) | activity (cell inhibition) ([2]; P-388, TEST CONC (µg) 10): ++ ((++) good activity - numbers of cells are reduced by approx 70-90%) | activity (cell inhibition) ([2]; P-388, TEST CONC (µg) 20): ++ ((++) good activity - numbers of cells are reduced by approx 70-90%) | activity (cell inhibition) ([3]; A-549, TEST CONC (µg) 0.2): - ((-) no activity - the number of cells is equal to the control of growth, 0-40% cell inhibition) | activity (cell inhibition) ([3]; A-549, TEST CONC (µg) 0.5): - ((-) no activity - the number of cells is equal to the control of growth, 0-40% cell inhibition) | activity (cell inhibition) ([3]; A-549, TEST CONC (µg) 1): - ((-) no activity - the number of cells is equal to the control of growth, 0-40% cell inhibition) | activity (cell inhibition) ([3]; A-549, TEST CONC (µg) 2): - ((-) no activity - the number of cells is equal to the control of growth, 0-40% cell inhibition) | activity (cell inhibition) ([3]; A-549, TEST CONC (µg) 5): - ((-) no activity - the number of cells is equal to the control of growth, 0-40% cell inhibition) | activity (cell inhibition) ([3]; A-549, TEST CONC (µg) 10): ++ ((++) good activity - numbers of cells are reduced by approx 70-90%) | activity (cell inhibition) ([3]; A-549, TEST CONC (µg) 20): ++ ((++) good activity - numbers of cells are reduced by approx 70-90%) | IC50 ([3]; Homo sapiens, A549, A-549, read-out: IC50 µg/ml approx): 5 to 10 µg/mL (≈ 15.9 to 31.8 µM) | IC50 [4]: > 40 µg/mL | IC50 [5]: > 40 µg/mL | IC50 ([6]; Mesocricetus auratus, read-out: IC50 µg/ml approx): 2 to 5 µg/mL (≈ 6.36 to 15.9 µM) | activity (cell inhibition) ([6]; TEST CONC (µg) 0.2): - ((-) no activity - the number of cells is equal to the control of growth, 0-40% cell inhibition) | activity (cell inhibition) ([6]; TEST CONC (µg) 0.5): - ((-) no activity - the number of cells is equal to the control of growth, 0-40% cell inhibition) | activity (cell inhibition) ([6]; TEST CONC (µg) 1): - ((-) no activity - the number of cells is equal to the control of growth, 0-40% cell inhibition) | activity (cell inhibition) ([6]; TEST CONC (µg) 2): - ((-) no activity - the number of cells is equal to the control of growth, 0-40% cell inhibition) | activity (cell inhibition) ([6]; TEST CONC (µg) 5): ++ ((++) good activity - numbers of cells are reduced by approx 70-90%) | activity (cell inhibition) ([6]; TEST CONC (µg) 10): +++ ((+++) very good activity - there is 100% cell inhibition) | activity (cell inhibition) ([6]; TEST CONC (µg) 20): +++ ((+++) very good activity - there is 100% cell inhibition) | IC50 ([7]; Homo sapiens, MCF7, MCF-7, read-out: IC50 µg/ml approx): ~10 µg/mL (≈ 31.8 µM) | activity (cell inhibition) ([7]; MCF-7, TEST CONC (µg) 0.2): - ((-) no activity - the number of cells is equal to the control of growth, 0-40% cell inhibition) | activity (cell inhibition) ([7]; MCF-7, TEST CONC (µg) 0.5): - ((-) no activity - the number of cells is equal to the control of growth, 0-40% cell inhibition) | activity (cell inhibition) ([7]; MCF-7, TEST CONC (µg) 1): - ((-) no activity - the number of cells is equal to the control of growth, 0-40% cell inhibition) | activity (cell inhibition) ([7]; MCF-7, TEST CONC (µg) 2): - ((-) no activity - the number of cells is equal to the control of growth, 0-40% cell inhibition) | activity (cell inhibition) ([7]; MCF-7, TEST CONC (µg) 5): - ((-) no activity - the number of cells is equal to the control of growth, 0-40% cell inhibition) | activity (cell inhibition) ([7]; MCF-7, TEST CONC (µg) 10): + ((+) low activity - numbers of cells are reduced by approx 50-60%) | activity (cell inhibition) ([7]; MCF-7, TEST CONC (µg) 20): ++ ((++) good activity - numbers of cells are reduced by approx 70-90%) | activity (cell inhibition) ([8]; CV-1, TEST CONC (µg) 0.2): - ((-) no activity - the number of cells is equal to the control of growth, 0-40% cell inhibition) | activity (cell inhibition) ([8]; CV-1, TEST CONC (µg) 0.5): - ((-) no activity - the number of cells is equal to the control of growth, 0-40% cell inhibition) | activity (cell inhibition) ([8]; CV-1, TEST CONC (µg) 1): - ((-) no activity - the number of cells is equal to the control of growth, 0-40% cell inhibition) | activity (cell inhibition) ([8]; CV-1, TEST CONC (µg) 2): - ((-) no activity - the number of cells is equal to the control of growth, 0-40% cell inhibition) | activity (cell inhibition) ([8]; CV-1, TEST CONC (µg) 5): - ((-) no activity - the number of cells is equal to the control of growth, 0-40% cell inhibition) | activity (cell inhibition) ([8]; CV-1, TEST CONC (µg) 10): + ((+) low activity - numbers of cells are reduced by approx 50-60%) | activity (cell inhibition) ([8]; CV-1, TEST CONC (µg) 20): ++ ((++) good activity - numbers of cells are reduced by approx 70-90%) | IC50 ([8]; Primates, CV-1, read-out: IC50 µg/ml approx): ~10 µg/mL (≈ 31.8 µM) | cytotoxicity (inhibition zone on the cell sheet) (BHK cells): 0-
